Consider 2 compounds from publication PMC6261342 (Journal of the American Chemical Society, 2018).

This experiment addresses T1, O-GlcNAc transferase (OGT) (Homo sapiens, UniProt O15294).
T1 sequence (O15294 323-1041): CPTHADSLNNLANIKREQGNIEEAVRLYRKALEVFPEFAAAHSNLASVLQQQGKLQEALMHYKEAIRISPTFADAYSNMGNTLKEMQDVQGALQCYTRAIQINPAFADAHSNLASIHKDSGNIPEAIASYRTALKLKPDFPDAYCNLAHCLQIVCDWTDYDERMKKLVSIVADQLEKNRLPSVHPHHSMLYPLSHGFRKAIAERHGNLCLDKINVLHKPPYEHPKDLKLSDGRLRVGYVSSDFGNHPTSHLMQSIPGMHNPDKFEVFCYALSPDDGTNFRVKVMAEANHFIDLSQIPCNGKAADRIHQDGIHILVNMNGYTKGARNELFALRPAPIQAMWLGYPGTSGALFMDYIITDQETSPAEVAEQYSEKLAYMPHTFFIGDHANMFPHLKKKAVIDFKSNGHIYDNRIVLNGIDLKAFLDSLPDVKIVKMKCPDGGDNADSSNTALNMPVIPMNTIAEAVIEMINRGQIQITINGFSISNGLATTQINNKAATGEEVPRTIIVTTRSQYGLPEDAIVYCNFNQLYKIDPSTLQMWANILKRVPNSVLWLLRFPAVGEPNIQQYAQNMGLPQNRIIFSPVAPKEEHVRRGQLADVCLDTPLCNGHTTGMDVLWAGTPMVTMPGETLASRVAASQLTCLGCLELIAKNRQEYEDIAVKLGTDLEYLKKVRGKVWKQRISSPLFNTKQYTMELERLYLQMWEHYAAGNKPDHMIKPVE
Put plainly: microscale thermophoresis. It is filed as binding.

As for `CC(=O)N[C@H]1[C@@H](OP(=O)(O)OP(=O)(O)OC[C@H]2O[C@@H](n3ccc(=O)[nH]c3=O)[C@H](O)[C@@H]2O)O[C@H](CO)[C@@H](O)[C@@H]1O` [UDP-GlcNAc], the Kd entry is “confirming that the method produced Kds for UDP and UDP-GlcNAc similar to those”.
The entry for `O=c1ccn([C@@H]2O[C@H](COP(=O)(O)OP(=O)(O)O)[C@@H](O)[C@H]2O)c(=O)[nH]1` [UDP] is “confirming that the method produced Kds for UDP and UDP-GlcNAc similar to those”.
